Where two headings read alike, the source gives them in different places. Where no end group is shown, it is not given here.
Assays:
[1] = Resistance to degradation in 25% fetal bovine serum; format: in vitro ADME; conditions: 25% fetal bovine serum in water, 37 °C, HPLC peak area vs t = 0 h, triplicate; for remaining at 0.5 h: read-out: peptide remaining intact after 30 min; for remaining at 6 h: read-out: peptide remaining intact after 6 h
Protocol: Figure 1 (a) Helical wheel projections of the IsCT1, AFPK-IsCT1, KKK-IsCT1, and IsCT-P peptides were generated using the Heliquest server (https://heliquest.ipmc.cnrs.fr/, accessed on 15 July 2024). In these projections, yellow, gray, and green circles represent hydrophobic amino acids, while blue and pink circles denote hydrophilic amino acids. (b) Resistance to degradation assays for all peptides were performed over 6 h in a solution containing 25% fetal bovine serum (FBS). These experiments were conducted in triplicate and aliquots were collected for analysis at 0, 0.5, 1, 2, 4, and 6 h of incubation. The aliquots were subsequently analyzed using high-performance liquid chromatography (HPLC) after each incubation period. The degradation kinetics of the peptides were determined by comparing the integrated peak area associated with the peptide at the start of the experiment (t = 0 h) with the integrated peak area at subsequent time points (t = 0.5, 1, 2, 4, 6 h). (c) The hemolytic activity of synthetic peptides analogous to IsCT1 was assessed on human erythrocytes within a concentration range of 0.13–128 μmol L^−1 in phosphate-buffered saline (PBS) (n = 3). A 1% solution of sodium dodecyl sulfate (SDS) in PBS served as a positive control, while PBS alone was used as a negative control. (d) A table summarizing the sequences, molecular weights, and physicochemical properties of the IsCT1, AFPK-IsCT1, and KKK-IsCT1 peptides. […]
Stability assays were conducted using GIBCO (Waltham, MA, USA) fetal bovine serum diluted to 25% in water, as described by Torres et al.. Briefly, peptide solutions were added to the serum solution and maintained at 37 °C. The experiments were carried out in triplicate and samples were taken at 0, 0.5, 1, 2, 4, and 6 h post incubation. The degradation kinetics were monitored using liquid chromatography and the percentage of remaining peptides was calculated by integrating the peak area of the peptide.

FN1 cells = test: MTT cell viability; format: cell-based; conditions: FN1 normal human fibroblasts, treatment 24 and 48 h (time of IC50 not given), absorbance 540 nm, N/IC50 = no IC50 for the tested concentrations, no toxicity
Protocol: (§1) Cell survival was assessed using an MTT assay. Tumor (SSC-9 and SSC-25) and normal cells (FN1 and J-774) were incubated in 96-well plates at a density of 10^5 cells/mL for 24 h. Subsequently, treatments were administered as described in Table 1 for 24 and 48 h. After the treatment period, the supernatant was aspirated and 100 μL of MTT at a concentration of 5 mg/mL (Calbiochem—Darmstadt, Germany) was added to the plate and incubated for 3 h at 37 °C with 5% CO2. Afterward, the content was removed and 200 μL of methanol was added to dissolve the formazan crystals. Absorbance was then measured at a wavelength of 540 nm using a microplate reader. The hemolysis assay was performed as previously reported.

J774 cells = test: MTT cell viability; format: cell-based; conditions: J774 normal macrophages, treatment 24 and 48 h (time of IC50 not given), absorbance 540 nm, N/IC50 = no IC50 for the tested concentrations, no toxicity
Protocol: as §1

SCC-25 cells = test: MTT cell viability; format: cell-based; conditions: treatment 24 and 48 h (time of IC50 not given), absorbance 540 nm, N/IC50 = no IC50 for the tested concentrations, no toxicity
Protocol: as §1

SCC-9 cells = test: MTT cell viability; format: cell-based; conditions: treatment 24 and 48 h (time of IC50 not given), absorbance 540 nm, N/IC50 = no IC50 for the tested concentrations, no toxicity
Protocol: as §1

SCC-25 tumor cells [2] = test: Cell cycle phase and DNA fragmentation analysis (flow cytometry); format: cell-based; conditions: 24 h, IsCT-P and AC-AFPK-IsCT1 at IC50, others 100 µM
Protocol: (§2) Figure 3 Analysis of cell cycle phases following a 24 h treatment with synthetic analogs of IsCT1 peptides. The indicated cells were treated at the IC50 values obtained for the IsCT-P and AC-AFPK-IsCT1 peptides and at a concentration of 100 µM for the other peptides. (a) Representative histograms of cell distribution across cell cycle phases; (b) bar graph showing the correlation of the effect on cell cycle and fragmented DNA, expressed as the mean ± SD of three independent SCC-9 tumor cell experiments; (c) bar graph showing the correlation of the effect on cell cycle and fragmented DNA, expressed as the mean ± SD of three independent experiments on SCC-25 tumor cells; (d) bar graph showing the correlation of the effect on cell cycle and fragmented DNA, expressed as the mean ± SD of three independent experiments of normal FN1 cells; (e) bar graph showing the correlation of the effect on cell cycle and fragmented DNA, expressed as the mean ± SD of three independent experiments of normal J774 cells. Statistical differences were obtained using ANOVA and Tukey–Kramer multiple comparison tests. * p < 0.05, ** p < 0.01, and *** p < 0.001 denote significance. ns = not significant.
(§3) Tumor (SSC-9 and SSC-25) and normal cells (FN1 and J-774) were subjected to treatment for 24 h at the peptides’ IC50 concentrations. Treated and control cells were trypsinized and centrifuged at 1200 rpm for 5 min. The resulting pellet was resuspended in 1 mL of cold buffer, followed by the addition of 3 mL of absolute ethanol. Samples were stored at −20 °C for 24 h. The samples were then centrifuged at 1500 rpm for 10 min and resuspended in 200 μL of FACS buffer containing 0.1% Triton X-100 (Sigma-Aldrich, St. Louis, MO, USA), 50 μg/mL propidium iodide (Sigma-Aldrich), and 1 µL of RNAse (200×). This mixture was kept at room temperature and protected from light for 30 min. The samples were then transferred to cytometry tubes and analyzed using a FACScanto flow cytometer (BD) with 10,000 events, and histograms were acquired and analyzed using ModFit LT 5.0 software.

SCC-9 tumor cells = test: as above; format: cell-based; conditions: 24 h, 100 µM, compared to the control
Protocol: as §2, §3

SCC-25 tumor cells [3] = test: Mitochondrial membrane electrical potential (ΔΨm) by flow cytometry; format: cell-based; conditions: 24 h, IsCT-P and AC-AFPK-IsCT1 at IC50, others 100 µM, MitoRed, mean ± SD of three independent experiments
Protocol: Figure 4 Analysis of mitochondrial electrical potential (ΔΨm) using flow cytometry following a 24 h treatment with synthetic analogs of IsCT1 peptides. The indicated cells were treated at the IC50 values obtained for the IsCT-P and AC-AFPK-IsCT1 peptides and at a concentration of 100 µM for the other peptides. (a) Representative histograms of cell distribution according to ΔΨm; (b) bar graph showing ΔΨm expressed as the mean ± SD of three independent experiments of SCC-9 tumor cells; (c) bar graph showing ΔΨm expressed as the mean ± SD of three independent experiments of SCC-25 tumor cells; (d) bar graph showing ΔΨm expressed as the mean ± SD of three independent experiments of normal FN1 cells; (e) bar graph showing ΔΨm expressed as the mean ± SD of three independent experiments of normal J774 cells. Statistical differences were obtained using ANOVA and Tukey–Kramer multiple comparison tests. * p < 0.05, ** p < 0.01, and *** p < 0.001 denote significance. ns = not significant.
Tumor (SSC-9 and SSC-25) and normal cells (FN1 and J-774) were subjected to treatment for a period of 24 h at the peptides’ IC50 concentrations. After treatment, the cells were trypsinized, centrifuged at 1200 rpm for 5 min, the supernatant was discarded, and the cells were resuspended in complete medium containing MitoRed™ (Sigma-Aldrich, USA) (200 nM/L). Subsequently, the samples were incubated in an incubator at 37 °C with 5% CO2 for 30 min. The tubes were then centrifuged, the supernatant was discarded, and the pellet was resuspended in 200 μL of FACS buffer. Readings were performed using a FACScanto flow cytometer (BD) with 10,000 events, and histograms were acquired and analyzed using FCS Express software 2.0.

ALGKFWPKIKSLF-NH2 [AFPK-IsCT1]
remaining at 0.5 h ([1]; 30 min): 50%
remaining at 6 h [1]: 8%
IC50 (FN1 cells): N/IC50
IC50 (J774 cells): N/IC50
IC50 (SCC-25 cells): N/IC50
IC50 (SCC-9 cells): N/IC50
fragmented DNA (SCC-25 tumor cells [2]): No significant DNA fragmentation
increase in fragmented DNA (SCC-9 tumor cells): 13.6%
decrease in ΔΨm (SCC-25 tumor cells [3]): 40.5 ± 0.4%

H-ILKKIWKGKKSLF-NH2 [KKK-IsCT1]
remaining at 0.5 h ([1]; 30 min): 50%
remaining at 6 h [1]: 8%
IC50 (FN1 cells): N/IC50
IC50 (J774 cells): N/IC50
IC50 (SCC-25 cells): N/IC50
IC50 (SCC-9 cells): N/IC50
fragmented DNA (SCC-25 tumor cells [2]): 19%

Ac-ILKKIWKGKKSLF-NH2 [AC-KKK-IsCT1]
metabolised at 0.5 h ([1]; 30 min): 50%
time to complete degradation [1]: ≤ 4 h
IC50 (FN1 cells; read-out: IC50): 100 µM
IC50 (J774 cells): N/IC50
IC50 (SCC-25 cells): N/IC50
IC50 (SCC-9 cells): N/IC50
fragmented DNA (SCC-25 tumor cells [2]): 12.4%
